Laboratory results published in patent publication US5656600A, “α-ketoamide derivatives as inhibitors of thrombosis” (Corvas International, Inc., priority 1993, dated 1997).
Values after ≈ are worked out from the molar mass of the structure shown. Residues, ends and D or L forms follow the SMILES beside them. *: point of attachment. Pentanoyl(2-Pr) = CCCC(CCC)C(=O)*

What was measured:
thrombin = thrombin (Homo sapiens, UniProt P00734); details: cited from earlier work
α-thrombin = α-thrombin (Homo sapiens, UniProt P00734); assay: Amidolytic thrombin assay (inhibition constant Ki); format: biochemical; details: chromogenic substrate Pefachrome t-PA, HBSA pH 7.5; slow-binding (kon/koff) or Dixon analysis
Experimental: The ability of the compounds of the present invention to act as inhibitors of thrombin catalytic activity in comparison to Hirulog-1 (compound 25) was assessed by determining their inhibition constant, Ki.
Enzyme activity was determined using the chromogenic substrate Pefachrome t-PA (CH3 SO2 -D-hexahydrotyrosine-glycyl-L-arginine-p-nitroaniline, obtained from Pentapharm Ltd.). The substrate was reconstituted in deionized water prior to use.
Ki values were determined for test compounds using the following methodologies:
The assay was conducted by combining in appropriate wells of a Corning microtiter plate, 50 μL of HBSA, 50 μL of the test compound at a specified concentration diluted in HBSA (or HBSA alone for Vo(uninhibited velocity) measurement), and 50 μL of the chromogenic substrate diluted in HBSA. At time zero, 50 μL of α-thrombin diluted in HBSA, was added to the wells yielding a final concentration of 0.25 nM in a total volume of 200 μL. Velocities of Pefachrome-tPA substrate hydrolysis which occurred over a 40 minute time period was measured by the change in absorbance at 405 nm using a Thermo Max® Kinetic Microplate Reader. […] The linear relationship between kobs and inhibitor concentration is indicative of a competitive, one step mechanism and was used to calculate kon and koff which yielded a value for Ki after taking into consideration the concentration and Km (38.5 μM) of the substrate in the assay.
The initial velocity of Pefachrome t-PA hydrolysis was measured by the change in absorbance at 405 nm using a Thermo Max® Kinetic Microplate Reader over a 2 minute period in which less than 5% of the added substrate was utilized. The relationship between the ratio of the inhibited steady-state velocity (Vs) and the uninhibited velocity (Vo) to the concentration of inhibitor [It ], was analyzed using Equation 1 developed by Morrison , J. F., Biochim. Biophys. Acta, 185:269 (1969) for inhibitors which deplete a significant amount of the total enzyme (Et) over the course of the assay (designated tight binding inhibitors):
Vs/Vo={([Et ]-[It ]-Ki*)+[([It ]+Ki*-[Et ])^2
Ki* was determined by fitting Vs/Vo verses [I] using Equation 1 by non-linear regression analysis.
The best fit of the data for both compounds was to the equation describing competitive inhibition.

arginyl aminopeptidase = details: Ocain et al.; cited from earlier work
cytosol aminopeptidase = details: Ocain et al.; cited from earlier work
[1] = biological target: microsomal aminopeptidase; details: Ocain et al.; cited from earlier work

In the case of N=C(N)NCCC[C@@H]1NC(=O)[C@@H]2CCCN2C(=O)[C@@H](NC=O)CNC(=O)/C=C/[C@H](Cc2ccc(O)cc2)NC(=O)[C@@H](Cc2ccccc2)NC(=O)C1=O [Cyclotheonamide A], the “IC50 (thrombin), reported” value (thrombin; Fusetani et al., Hagihara et al.) is listed as 0.076 µg/mL (≈ 0.104 µM) and the IC50 (thrombin; Fusetani et al., Hagihara et al., read-out: IC50 (thrombin), reported) is listed as 99 nM.

For CCCC(CCC)C(=O)N[C@@H](CC(=O)O)C(=O)N1CCC[C@H]1C(=O)N[C@@H](CCCNC(=N)N)C(=O)C(=O)NCC(=O)NCC(=O)NCC(=O)NCC(=O)NCC(=O)N[C@@H](CC(N)=O)C(=O)NCC(=O)N[C@@H](CC(=O)O)C(=O)N[C@@H](Cc1ccccc1)C(=O)N[C@@H](CCC(=O)O)C(=O)N[C@@H](CCC(=O)O)C(=O)N[C@H](C(=O)N1CCC[C@H]1C(=O)N[C@@H](CCC(=O)O)C(=O)N[C@@H](CCC(=O)O)C(=O)N[C@@H](Cc1ccc(O)cc1)C(=O)N[C@@H](CC(C)C)C(=O)O)[C@@H](C)CC [Compound 10], the Ki (α-thrombin) was 0.04 nM.

Work on CCCC(CCC)C(=O)N[C@@H](CC(=O)O)C(=O)N1CCC[C@H]1C(=O)N[C@@H](CCCNC(=N)N)C(=O)N1CCC[C@H]1C(=O)NCC(=O)NCC(=O)NCC(=O)NCC(=O)N[C@@H](CC(N)=O)C(=O)NCC(=O)N[C@@H](CC(=O)O)C(=O)N[C@@H](Cc1ccccc1)C(=O)N[C@@H](CCC(=O)O)C(=O)N[C@@H](CCC(=O)O)C(=O)N[C@H](C(=O)N1CCC[C@H]1C(=O)N[C@@H](CCC(=O)O)C(=O)N[C@@H](Cc1ccc(O)cc1)C(=O)N[C@@H](CC(C)C)C(=O)O)[C@@H](C)CC [Compound 9] ({Pentanoyl(2-Pr)}-DPRPGGGGNGDFEEIPEYL-OH) yielded a Ki (α-thrombin) of 46.1 nM.

For NC(=O)C(=O)C(N)Cc1ccccc1 (stereo not drawn) [3-Amino-2-oxo-4-phenylbutanoic acid amide], the Ki (arginyl aminopeptidase) is listed as 1500 nM, the Ki (cytosol aminopeptidase) is listed as 1000 nM and the Ki [1] is listed as 2500 nM.

For CCCC(CCC)C(=O)N[C@@H](CC(=O)O)C(=O)N1CCC[C@H]1C(=O)N[C@@H](CCCNC(=N)N)C(=O)C(=O)NCC(=O)NCC(=O)NCC(=O)NCC(=O)NCC(=O)N[C@@H](CCCNC(=N)N)C(=O)NCC(=O)N[C@@H](CC(=O)O)C(=O)N[C@@H](Cc1ccccc1)C(=O)N[C@@H](CCC(=O)O)C(=O)N[C@@H](CCC(=O)O)C(=O)N[C@H](C(=O)N1CCC[C@H]1C(=O)N[C@@H](CCC(=O)O)C(=O)N[C@@H](CCC(=O)O)C(=O)N[C@@H](Cc1ccc(O)cc1)C(=O)N[C@@H](CC(C)C)C(=O)O)[C@@H](C)CC [Compound 11], the Ki (α-thrombin) was 0.0078 nM.

For “N-acetyl--D--Phe--Pro Arg--[.psi.C(=O)--CH2 ]--CH2 --CH2 --CH2 -(C=O)--Gln--Ser--His--Asn--Asp--Gly--Asp--Phe--Glu--Glu--Ile--Pro--Glu--Glu--Tyr--Leu--Gln”, the Ki (thrombin; literature values, read-out: Ki (thrombin), reported) is listed as 0.14 nM.
